According to PubChem BioAssay AID248 (DTP/NCI, 2004):
Inconclusive results and toxic doses are left out. Cut-off read from the data, not from the text of the source: active = T/C of 150% or more; inactive = T/C below 125%.

Tested on: L1210 leukemia ip in BDF1 mice, survival T/C
Assay: NCI In Vivo Anticancer Drug Screen. Data for tumor model L1210 Leukemia (intraperitoneal) in B6D2F1 (BDF1) mice
Conditions: endpoint: mean survival time, higher = longer survival
In short: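 Transplantable tumor model; survival measured in treated vs vehicle control mice. Value = treated/control.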

[1] = dose: 50.0 mg/kg/injection, schedule: Q01DX001 (ip), vehicle: saline
[2] = dose: 100.0 mg/kg/injection, schedule: Q04DX003 (ip), vehicle: Klucel (hydroxypropylcellulose) (HPC)
[3] = dose: 200.0 mg/kg/injection, schedule: Q04DX003 (ip), vehicle: Klucel (hydroxypropylcellulose) (HPC)
[4] = dose: 400.0 mg/kg/injection, schedule: Q04DX003 (ip), vehicle: Klucel (hydroxypropylcellulose) (HPC)
[5] = dose: 100.0 mg/kg/injection, schedule: Q04DX003 (ip), vehicle: saline with Tween-80
[6] = dose: 100.0 mg/kg/injection, schedule: Q04DX003 (ip), vehicle: saline
[7] = dose: 100.0 mg/kg/injection, schedule: Q01DX009 (ip), vehicle: Klucel (hydroxypropylcellulose) (HPC)
[8] = dose: 200.0 mg/kg/injection, schedule: Q01DX009 (ip), vehicle: Klucel (hydroxypropylcellulose) (HPC)
[9] = dose: 400.0 mg/kg/injection, schedule: Q01DX009 (ip), vehicle: Klucel (hydroxypropylcellulose) (HPC)
[10] = dose: 100.0 mg/kg/injection, schedule: Q01DX001 (ip), vehicle: carboxymethylcellulose (CMC)
[11] = dose: 200.0 mg/kg/injection, schedule: Q01DX001 (ip), vehicle: carboxymethylcellulose (CMC)
[12] = dose: 400.0 mg/kg/injection, schedule: Q01DX001 (ip), vehicle: carboxymethylcellulose (CMC)

Measured: T/C

CC(=O)COc1ccc([N+](=O)[O-])cc1
inactive: dose: 100.0 mg/kg/injection, schedule: Q01DX001 (ip), vehicle: saline with Tween-80 100 % of control | dose: 200.0 mg/kg/injection, schedule: Q01DX001 (ip), vehicle: saline with Tween-80 102 % of control | dose: 400.0 mg/kg/injection, schedule: Q01DX001 (ip), vehicle: saline with Tween-80 98 % of control

O=S(=O)(C=C(N1CCCCC1)N1CCCCC1)Cc1ccccc1
inactive: dose: 6.25 mg/kg/injection, schedule: Q01DX009 (ip), vehicle: saline 113 % of control | dose: 12.5 mg/kg/injection, schedule: Q01DX001 (ip), vehicle: saline 100 % of control | dose: 12.5 mg/kg/injection, schedule: Q01DX009 (ip), vehicle: saline 106 % of control | dose: 12.5 mg/kg/injection, schedule: Q04DX003 (ip), vehicle: saline 94 % of control | dose: 25.0 mg/kg/injection, schedule: Q01DX001 (ip), vehicle: saline 100 % of control | dose: 25.0 mg/kg/injection, schedule: Q01DX009 (ip), vehicle: saline 103 % of control | dose: 25.0 mg/kg/injection, schedule: Q04DX003 (ip), vehicle: saline 98 % of control | dose: 35.0 mg/kg/injection, schedule: Q01DX009 (ip), vehicle: acetone 101 % of control | [1] 106 % of control

COC(=O)c1c2c(nc3ccccc13)-c1ccccc1C(C)(C)C2OC (stereo not given)
inactive: [2] 113 % of control | [3] 102 % of control | [4] 101 % of control

O=C1c2ccccc2C(C(C/C(=N/O)c2ccccc2)c2ccccc2)c2ccccc21 (stereo not given)
inactive: [5] 93 % of control | dose: 200.0 mg/kg/injection, schedule: Q04DX003 (ip), vehicle: saline with Tween-80 93 % of control | dose: 400.0 mg/kg/injection, schedule: Q04DX003 (ip), vehicle: saline with Tween-80 100 % of control

CCCCCCCCCCCCCCCCC(=O)OCC
inactive: dose: 75.0 mg/kg/injection, schedule: Q01DX001 (ip), vehicle: carboxymethylcellulose (CMC) 91 % of control

O=C(CCN1CC1)Nc1ccccc1
inactive: dose: 3.12 mg/kg/injection, schedule: Q01DX009 (ip), vehicle: Klucel (hydroxypropylcellulose) (HPC) 110 % of control | dose: 6.25 mg/kg/injection, schedule: Q01DX009 (ip), vehicle: Klucel (hydroxypropylcellulose) (HPC) 108 % of control | dose: 12.5 mg/kg/injection, schedule: Q01DX009 (ip), vehicle: Klucel (hydroxypropylcellulose) (HPC) 106 % of control | dose: 12.5 mg/kg/injection, schedule: Q04DX003 (ip), vehicle: Klucel (hydroxypropylcellulose) (HPC) 107 % of control | dose: 25.0 mg/kg/injection, schedule: Q01DX009 (ip), vehicle: Klucel (hydroxypropylcellulose) (HPC) 106 % of control | dose: 25.0 mg/kg/injection, schedule: Q04DX003 (ip), vehicle: Klucel (hydroxypropylcellulose) (HPC) 91 % of control | dose: 50.0 mg/kg/injection, schedule: Q01DX009 (ip), vehicle: Klucel (hydroxypropylcellulose) (HPC) 102 % of control | dose: 50.0 mg/kg/injection, schedule: Q04DX003 (ip), vehicle: Klucel (hydroxypropylcellulose) (HPC) 95 % of control | [6] 91 % of control

CC(=O)c1ccc(N=C2C=CC(=O)O2)cc1
inactive: dose: 100.0 mg/kg/injection, schedule: Q01DX009 (ip), vehicle: saline with Tween-80 104 % of control | dose: 200.0 mg/kg/injection, schedule: Q01DX009 (ip), vehicle: saline with Tween-80 105 % of control | dose: 400.0 mg/kg/injection, schedule: Q01DX009 (ip), vehicle: saline with Tween-80 100 % of control

CC(CSc1ccccc1)NCCO (stereo not given)
inactive: [5] 97 % of control

Cc1ccc(SP(=S)(Sc2ccc(C)cc2)Sc2ccc(C)cc2)cc1
inactive: [7] 97 % of control | [8] 97 % of control | [9] 94 % of control

C=CC[Se]c1ncnc2c1ccn2C1OC(CO)C(O)C1O (stereo not given)
inactive: dose: 12.5 mg/kg/injection, schedule: Q01DX005 (ip), vehicle: saline 101 % of control | dose: 25.0 mg/kg/injection, schedule: Q01DX005 (ip), vehicle: saline 107 % of control | dose: 50.0 mg/kg/injection, schedule: Q01DX005 (ip), vehicle: saline 107 % of control | dose: 100.0 mg/kg/injection, schedule: Q01DX005 (ip), vehicle: saline 102 % of control

Cc1ccccc1NC(=O)NCCc1ccccc1
inactive: [7] 93 % of control | [2] 88 % of control | [8] 91 % of control | [3] 93 % of control | [9] 98 % of control | [4] 90 % of control

CN(C)C(=O)NCc1cccnc1
inactive: dose: 100.0 mg/kg/injection, schedule: Q04DX013 (ip), vehicle: saline 100 % of control | dose: 200.0 mg/kg/injection, schedule: Q04DX013 (ip), vehicle: saline 94 % of control | dose: 400.0 mg/kg/injection, schedule: Q04DX013 (ip), vehicle: saline 101 % of control

c1ccc2c(c1)OCOc1ccccc1OCO2
inactive: [10] 94 % of control | [11] 92 % of control | [12] 92 % of control

NC(=O)c1ccccc1NC(=O)Nc1ccccc1
inactive: [7] 98 % of control | [2] 102 % of control | [8] 94 % of control | [3] 96 % of control | [9] 89 % of control | [4] 94 % of control

N#CSC/C(Br)=C/Br
inactive: dose: 6.25 mg/kg/injection, schedule: Q01DX009 (ip), vehicle: saline with Tween-80 99 % of control | dose: 12.5 mg/kg/injection, schedule: Q01DX009 (ip), vehicle: saline with Tween-80 96 % of control | dose: 25.0 mg/kg/injection, schedule: Q01DX009 (ip), vehicle: saline with Tween-80 96 % of control

CCC(CC)(c1ccccc1)C(OC(N)=O)c1ccccc1 (stereo not given)
inactive: [1] 90 % of control | dose: 100.0 mg/kg/injection, schedule: Q01DX001 (ip), vehicle: saline 101 % of control | dose: 200.0 mg/kg/injection, schedule: Q01DX001 (ip), vehicle: saline 92 % of control | dose: 400.0 mg/kg/injection, schedule: Q01DX001 (ip), vehicle: saline 90 % of control

NC1(C(=O)c2ccccc2)CC2CCC1C2 (stereo not given)
inactive: [2] 101 % of control | [3] 98 % of control | [4] 103 % of control

CC1(C)N=C(N)N=C(N)N1c1cccc(OCc2cccc(N)c2)c1
inactive: dose: 5.0 mg/kg/injection, schedule: Q01DX001 (ip), vehicle: saline 98 % of control | dose: 10.0 mg/kg/injection, schedule: Q01DX001 (ip), vehicle: saline 101 % of control | dose: 20.0 mg/kg/injection, schedule: Q01DX001 (ip), vehicle: saline 96 % of control | dose: 40.0 mg/kg/injection, schedule: Q01DX001 (ip), vehicle: saline 93 % of control | dose: 80.0 mg/kg/injection, schedule: Q01DX001 (ip), vehicle: saline 113 % of control

O=C1C2C3CC4C2C(=O)C2C1C3C42 (stereo not given)
inactive: dose: 75.0 mg/kg/injection, schedule: Q01DX001 (ip), vehicle: other 101 % of control | dose: 100.0 mg/kg/injection, schedule: Q01DX009 (ip), vehicle: saline 97 % of control | [6] 94 % of control | dose: 150.0 mg/kg/injection, schedule: Q01DX001 (ip), vehicle: other 101 % of control | dose: 200.0 mg/kg/injection, schedule: Q01DX009 (ip), vehicle: saline 94 % of control | dose: 200.0 mg/kg/injection, schedule: Q04DX003 (ip), vehicle: saline 104 % of control | dose: 300.0 mg/kg/injection, schedule: Q01DX001 (ip), vehicle: other 93 % of control | dose: 400.0 mg/kg/injection, schedule: Q01DX009 (ip), vehicle: saline 104 % of control | dose: 400.0 mg/kg/injection, schedule: Q04DX003 (ip), vehicle: saline 91 % of control

CN1C2CCC1CC(=O)C2
inactive: dose: 75.0 mg/kg/injection, schedule: Q01DX001 (ip), vehicle: saline 103 % of control | dose: 150.0 mg/kg/injection, schedule: Q01DX001 (ip), vehicle: saline 102 % of control

COc1ccc(C(=O)c2ccccc2)c(O)c1
inactive: [2] 101 % of control | [3] 97 % of control | [4] 90 % of control

COc1cccc(/C=C2\CCNC2=O)c1OC
inactive: dose: 50.0 mg/kg/injection, schedule: Q01DX001 (ip), vehicle: carboxymethylcellulose (CMC) 96 % of control | [10] 102 % of control | [11] 100 % of control | [12] 96 % of control
